Measured values as given in patent publication US20190375708A1 (VenatoRx Pharmaceuticals, Inc., priority 2018, published 2019).
pEC50: −log10 of the molar value.

How the values were obtained:
[1] = system: HBV replication in HepAD38 cells; assay: Anti-HBV replication assay in HepAD38 cells (QPCR of extracellular HBV DNA); type: cell-based, HBV (genotype D, serotype ayw); conditions: Hepatitis B virus, 168 h, 7 days incubation, extracellular HBV DNA by QPCR, read-out: Anti-HBV EC50
Summary of the method: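 EC50 values reflect 50% reduction of extracellular HBV DNA, measured by QPCR after 7-day treatment of tetracycline-deprived HepAD38 cells with compound […].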

[2] = In vitro cytotoxicity assay (MTT cell viability) in HepG2 cells; type: cell-based, human; conditions: human
Summary of the method: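 HepG2 seeded overnight, then 7-day compound exposure (30 μM–1.0 nM, half-log steps), 37 °C. MTT 3-4 h, DMSO solubilization, A492. % of vehicle → CC50, 4-PL fit.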

In the case of `Cc1c(C(=O)Nc2ccc(F)nc2)c(C)n(C)c1C(=O)C(=O)NC(C)(C)CO` [Example 120, N-(6-fluoropyridin-3-yl)-5-(2-((1-hydroxy-2-methylpropan-2-yl)amino)-2-oxoacetyl)-1,2,4-trimtehyl-1H-pyrrole-3-carboxamide], the pEC50 [1] was 6.00 to 6.30 and the CC50 at 7 days [2] was > 30000 nM.

With `Cc1c(C(=O)Nc2ccc(F)nc2)c(C)n(C)c1C(=O)C(=O)NC(C)(C)C(F)(F)F` [Example 121, N-(6-fluoropyridin-3-yl)-1,2,4-trimethyl-5-(2-oxo-2-((1,1,1-trifluoro-2-methylpropan-2-yl)amino)acetyl)-1H-pyrrole-3-carboxamide] the pEC50 [1] was > 7.30 and the CC50 at 7 days [2] was > 30000 nM.

For `Cc1cc(NC(=O)c2c(C)c(C(=O)C(=O)N[C@H]3C4CC5CC3C[C@](O)(C5)C4)n(C)c2C)cnc1F` [Example 122, N-(6-fluoro-5-methylpyridin-3-yl)-5-(2-(((1R,2s,3S,5s,7s)-5-hydroxyadamantan-2-yl)amino)-2-oxoacetyl)-1,2,4-trimethyl-1H-pyrrole-3-carboxamide], the pEC50 [1] was > 7.30 and the CC50 at 7 days [2] was > 30000 nM.

For `CNC(=O)[C@@H](NC(=O)C(=O)c1c(C)c(C(=O)Nc2ccc(F)c(C)c2)c(C)n1C)C1CC1` [Example 123, (S)-5-(2-((1-cyclopropyl-2-(methylamino)-2-oxoethyl)amino)-2-oxoacetyl)-N-(4-fluoro-3-methylphenyl)-1,2,4-trimethyl-1H-pyrrole-3-carboxamide], the pEC50 [1] was 6.30 to 7.30 and the CC50 at 7 days [2] was > 30000 nM.

For `CNC(=O)[C@@H](NC(=O)C(=O)c1c(C)c(C(=O)Nc2ccc(F)c(C)c2)c(C)n1C)C1CCC1` [Example 124, (S)-5-(2-((1-cyclobutyl-2-(methylamino)-2-oxoethyl)amino)-2-oxoacetyl)-N-(4-fluoro-3-methylphenyl)-1,2,4-trimethyl-1H-pyrrole-3-carboxamide], the pEC50 [1] was > 7.30 and the CC50 at 7 days [2] was 5000 to 30000 nM.

With `CNC(=O)[C@@H](NC(=O)C(=O)c1c(C)c(C(=O)Nc2ccc(F)c(C)c2)c(C)n1C)C1CCCC1` [Example 125, (S)-5-(2-((1-cyclopentyl-2-(methylamino)-2-oxoethyl)amino)-2-oxoacetyl)-N-(4-fluoro-3-methylphenyl)-1,2,4-trimethyl-1H-pyrrole-3-carboxamide] the pEC50 [1] was > 7.30 and the CC50 at 7 days [2] was 500 to 4990 nM.

With `Cc1cc(NC(=O)c2c(C)c(C(=O)C(=O)NC3(CO)CC(F)(F)C3)n(C)c2C)ccc1F` [Example 126, 5-(2-((3,3-difluoro-1-(hydroxymethyl)cyclobutyl)amino)-2-oxoacetyl)-N-(4-fluoro-3-methylpheenyl)-1,2,4-trimethyl-1H-pyrrole-3-carboxamide] the pEC50 [1] was > 7.30 and the CC50 at 7 days [2] was > 30000 nM.

For `Cc1cc(NC(=O)c2c(C)c(C(=O)C(=O)N[C@@H]3CC[C@@H](O)C3)n(C)c2C)ccc1F` [Example 127, N-(4-fluoro-3-methylphenyl)-5-(2-(((1R,3R)-3-hydroxycyclopentyl)amino)-2-oxoacetyl)-1,2,4-trimethyl-1H-pyrrole-3-carboxamide], the pEC50 [1] was > 7.30 and the CC50 at 7 days [2] was > 30000 nM.

In the case of `Cc1cc(NC(=O)c2c(C)c(C(=O)C(=O)N[C@H]3COC[C@@H]3O)n(C)c2C)ccc1F` [Example 128, N-(4-fluoro-3-methylphenyl)-5-(2-(((3S,4R)-4-hydroxytetrahydrofuran-3-yl)amino)-2-oxoacetyl)-1,2,4-trimethyl-1H-pyrrole-3-carboxamide], the pEC50 [1] was > 7.30 and the CC50 at 7 days [2] was > 30000 nM.

For `Cc1cc(NC(=O)c2c(C)c(C(=O)C(=O)N[C@H]3C[C@H](O)C3)n(C)c2C)ccc1F` [Example 129, N-(4-fluoro-3-methylphenyl)-5-(22-(((1r,3r)-3-hydroxycyclobutyl)amino)-2-oxoacetyl)-1,2,4-trimethyl-1H-pyrrole-3-carboxamide], the pEC50 [1] was > 7.30 and the CC50 at 7 days [2] was > 30000 nM.

For `Cc1cc(NC(=O)c2c(C)c(C(=O)C(=O)N[C@H]3COC[C@@H]3O)n(CCF)c2C)ccc1F` [Example 130, N-(4-fluoro-3-methylphenyl)-1-(2-fluoroethyl)-5-(2-(((3S,4R)-4-hydroxytetrahydrofuran-3-yl)amino)-2-oxoacetyl)-2,4-dimethyl-1H-pyrrole-3-carboxamide], the pEC50 [1] was 6.30 to 7.30 and the CC50 at 7 days [2] was > 30000 nM.

With `Cc1cc(NC(=O)c2c(C)c(C(=O)C(=O)N[C@H]3CCC[C@@H]3O)n(C)c2C)cnc1F` [Example 131, N-(6-fluoro-5-methylpyridin-3-yl)-5-(2-(((1S,2S)-2-hydroxycyclopentyl)amino)-2-oxoacetyl)-1,2,4-trimethyl-1H-pyrrole-3-carboxamide] the pEC50 [1] was 6.30 to 7.30 and the CC50 at 7 days [2] was > 30000 nM.

With `Cc1cc(NC(=O)c2c(C)c(C(=O)C(=O)N[C@@H]3CCC[C@H]3O)n(C)c2C)cnc1F` [Example 132, N-(6-fluoro-5-methylpyridin-3-yl)-5-(2-(((1R,2R)-2-hydroxycyclopentyl)amino)-2-oxoacetyl)-1,2,4-trimethyl-1H-pyrrole-3-carboxamide] the pEC50 [1] was 6.30 to 7.30 and the CC50 at 7 days [2] was > 30000 nM.

For `Cc1c(C(=O)Nc2ccnc(F)c2)c(C)n(C)c1C(=O)C(=O)NC(C)(C)CO` [Example 133, N-(2-fluoropyridin-4-yl)-5-(2-((1-hydroxy-2-methylpropan-2-yl)amino)-2-oxoacetyl)-1,2,4-trimethyl-1H-pyrrole-3-carboxamide], the pEC50 [1] was 6.30 to 7.30 and the CC50 at 7 days [2] was > 30000 nM.

For `Cc1c(C(=O)Nc2ccnc(F)c2)c(C)n(C)c1C(=O)C(=O)N[C@H]1CCC[C@@H]1O` [Example 134, N-(2-fluoropyridin-4-yl)-5-(2-(((1S,2S)-2-hydroxycyclopentyl)amino)-2-oxoacetyl)-1,2,4-trimethyl-1H-pyrrole-3-carboxamide], the pEC50 [1] was 6.30 to 7.30 and the CC50 at 7 days [2] was > 30000 nM.

In the case of `Cc1c(C(=O)Nc2ccc(F)cn2)c(C)n(C)c1C(=O)C(=O)NC12CC3CC(CC1C3)C2` [Example 135, N-(5-fluoropyridin-2-yl)-5-(2-(((2R,3as,5S,6as)-hexahydro-2,5-methanopentalen-3a(1H)-l)amino)-2-oxoacetyl)-1,2,4-trimethyl-1H-pyrrole-3-carboxamide], the pEC50 [1] was 6.30 to 7.30 and the CC50 at 7 days [2] was 5000 to 30000 nM.

For `Cc1cc(NC(=O)c2c(C)c(C(=O)C(=O)N[C@@H]3CCCC[C@H]3O)n(C)c2C)ccc1F` [Example 136, N-(4-fluoro-3-methylphenyl)-5-(2-(((1R,2R)-2-hydroxycyclohexyl)amino)-2-oxoacetyl)-1,2,4-trimethyl-1H-pyrrole-3-carboxamide], the pEC50 [1] was > 7.30 and the CC50 at 7 days [2] was > 30000 nM.

For `Cc1cc(NC(=O)c2c(C)c(C(=O)C(=O)N[C@H]3CC[C@@H](O)CC3)n(C)c2C)ccc1F` [Example 137, N-(4-fluoro-3-methylphenyl)-5-(2-(((1s,4s)-4-hydroxycyclohexyl)amino)-2-oxoacetyl)-1,2,4-trimethyl-1H-pyrrole-3-carboxamide], the pEC50 [1] was > 7.30 and the CC50 at 7 days [2] was > 30000 nM.

For `CC[C@@H](CO)NC(=O)C(=O)c1c(C)c(C(=O)Nc2ccc(F)c(C)c2)c(C)n1C` [Example 139, (S)-N-(4-fluoro-3-methylphenyl)-5-(2-((1-hydroxybutan-2-yl)amino)-2-oxoacetyl)-1,2,4-trimethyl-1H-pyrrole-3-carboxamide], the pEC50 [1] was > 7.30 and the CC50 at 7 days [2] was > 30000 nM.

In the case of `CC[C@H](CO)NC(=O)C(=O)c1c(C)c(C(=O)Nc2ccc(F)c(C)c2)c(C)n1C` [Example 140, (R)-N-(4-fluoro-3-methylphenyl)-5-(2-((1-hydroxybutan-2-yl)amino)-2-oxoacetyl)-1,2,4-trimethyl-1H-pyrrole-3-carboxamide], the pEC50 [1] was > 7.30 and the CC50 at 7 days [2] was > 30000 nM.

With `Cc1cc(NC(=O)c2c(C)c(C(=O)C(=O)N[C@H](C)CCO)n(C)c2C)ccc1F` [Example 141, (R)-N-(4-fluoro-3-methylphenyl)-5-(2-((4-hydroxybutan-2-yl)amino)-2-oxoacetyl)-1,2,4-trimethyl-1H-pyrrole-3-carboxamide] the pEC50 [1] was > 7.30 and the CC50 at 7 days [2] was > 30000 nM.

In the case of `Cc1cc(NC(=O)c2c(C)c(C(=O)C(=O)N[C@@H](C)CCO)n(C)c2C)ccc1F` [Example 142, (S)-N-(4-fluoro-3-methylphenyl)-5-(2-((4-hydroxybutan-2-yl)amino)-2-oxoacetyl)-1,2,4-trimethyl-1H-pyrrole-3-carboxamide], the pEC50 [1] was > 7.30 and the CC50 at 7 days [2] was > 30000 nM.

For `Cc1cc(NC(=O)c2c(C)c(C(=O)C(=O)N[C@H](CO)[C@@H](C)O)n(C)c2C)ccc1F` [Example 143, 5-(2-(((2R,3R)-1,3-dihydroxybutan-2-yl)amino)-2-oxoacetyl)-N-(4-fluoro-3-methylphenyl)-1,2,4-trimethyl-1H-pyrrole-3-carboxamide], the pEC50 [1] was > 7.30 and the CC50 at 7 days [2] was > 30000 nM.

In the case of `Cc1noc([C@H](NC(=O)C(=O)c2c(C)c(C(=O)Nc3ccc(F)c(C)c3)c(C)n2C)C(C)C)n1` [Example 144, (R)-N-(4-fluoro-3-methylphenyl)-1,2,4-trimethyl-5-(2-((2-methyl-1-(3-methyl-1,2,4-oxadiazol-5-yl)propyl)amino)-2-oxoacetyl)-1H-pyrrole-3-carboxamide], the pEC50 [1] was > 7.30 and the CC50 at 7 days [2] was > 30000 nM.

For `Cc1noc([C@@H](NC(=O)C(=O)c2c(C)c(C(=O)Nc3ccc(F)c(C)c3)c(C)n2C)C(C)C)n1` [Example 145, (S)-N-(4-fluoro-3-methylphenyl)-1,2,4-trimethyl-5-(2-((2-methyl-1-(3-methyl-1,2,4-oxadiazol-5-yl)propyl)amino)-2-oxoacetyl)-1H-pyrrole-3-carboxamide], the pEC50 [1] was > 7.30 and the CC50 at 7 days [2] was > 30000 nM.

In the case of `Cc1cc(NC(=O)c2c(C)c(C(=O)C(=O)N[C@@H]3CCC[C@@H]3O)n(C)c2C)ccc1F` [Example 146, N-(4-fluoro-3-methylphenyl)-5-(2-(((1R,2S)-2-hydroxxycyclopentyl)amino)-2-oxoacetyl)-1,2,4-trimethyl-1H-pyrrole-3-carboxamide], the pEC50 [1] was > 7.30 and the CC50 at 7 days [2] was > 30000 nM.
